From patent publication US10889579B2, “Thiazine derivatives as β-secretase inhibitors and methods of use” (AMGEN INC., priority 2016, dated 2021)

Legend:
BACE1 [1] = biological target: T1, BACE1 (Homo sapiens (Human), UniProt P56817); assay: In vitro BACE1 cell-based assay (Aβ40 in conditioned medium, HTRF); conditions: Aβ40 in conditioned medium of cells stably expressing APP, 24 h
Method: In Vitro BACE1 Cell-Based Assay
The cell-based assay measures inhibition or reduction of Aβ40 in conditioned medium of test compound treated cells expressing amyloid precursor protein. Cells stably expressing Amyloid Precursor Protein (APP) were plated at a density of 45K cells/well in 384 well plates (Corning/BioCoat 354663). The test compounds were then added to cells in 22-point dose response concentrations with the starting concentration being 62.5 μM. The compounds were diluted from stock solutions in DMSO and the final DMSO concentration of the test compounds on cells was 0.625%. The cells were cultivated overnight at 37° C. and 5% CO2 in DMEM supplemented with 10% FBS. After 24 h of incubation with the test compounds, the conditioned media was collected and the Aβ40 levels were determined using HTRF (Homogeneous Time Resolved Fluorescence). The IC50 of the compound was calculated from the percent of control or percent inhibition of Aβ 40 as a function of the concentration of the test compound.
The HTRF to detect Aβ40 was performed in 384 well plates (Costar 3658). The antibody pair that were used to detect Aβ 40 from cell supernatants were ConfAb40 antibody (Amgen in-house) and biotinylated 6E10 (BIOLEGEND). As an alternative to ConfAb40, a commercially available antibody, Anti-beta Amyloid 1-40 antibody [BDI350] from Abcam, Cambridge, Mass. 02139-1517 (Product code: ab20068), may be used in this assay. The concentrations were 0.35 μg/mL of ConfAb40 antibody and 1.33 μg/mL of 6E10-biotinylated antibody, as well as 4.5 μg/mL of Streptavidin Allophycocyanin Conjugate (ThermoFisher Scientific) in HTRF Buffer (1M Hepes pH 7.5, 1M NaCL, 1% BSA, 0.5% Tween 20).
The conditioned media was incubated with above antibodies and Streptavidin Allophycocyanin Conjugate for 30-60 minutes at 23° C. The final readout was performed on Envision from PerkinElmer.
Target sequence in this assay (P56817 46-501, species assumed): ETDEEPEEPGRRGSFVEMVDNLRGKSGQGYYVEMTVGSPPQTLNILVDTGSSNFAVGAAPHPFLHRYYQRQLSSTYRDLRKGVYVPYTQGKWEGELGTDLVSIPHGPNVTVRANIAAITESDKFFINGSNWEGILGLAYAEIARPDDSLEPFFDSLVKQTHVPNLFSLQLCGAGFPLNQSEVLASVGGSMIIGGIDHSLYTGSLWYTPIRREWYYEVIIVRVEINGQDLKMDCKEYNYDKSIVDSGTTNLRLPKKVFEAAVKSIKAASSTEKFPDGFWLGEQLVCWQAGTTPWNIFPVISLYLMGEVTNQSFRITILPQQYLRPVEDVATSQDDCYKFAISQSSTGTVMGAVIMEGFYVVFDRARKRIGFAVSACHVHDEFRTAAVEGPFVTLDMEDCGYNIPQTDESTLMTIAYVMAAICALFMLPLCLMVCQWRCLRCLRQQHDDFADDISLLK

Recombinant CatD = Recombinant CatD (Homo sapiens (Human), UniProt P07339); assay: In vitro enzymatic Cathepsin D (CatD) FRET assay; type: biochemical; conditions: pH 3.5, 1 h pre-incubation, read-out: Cat D Enzyme IC50
Chain of Recombinant CatD (P07339 65-412): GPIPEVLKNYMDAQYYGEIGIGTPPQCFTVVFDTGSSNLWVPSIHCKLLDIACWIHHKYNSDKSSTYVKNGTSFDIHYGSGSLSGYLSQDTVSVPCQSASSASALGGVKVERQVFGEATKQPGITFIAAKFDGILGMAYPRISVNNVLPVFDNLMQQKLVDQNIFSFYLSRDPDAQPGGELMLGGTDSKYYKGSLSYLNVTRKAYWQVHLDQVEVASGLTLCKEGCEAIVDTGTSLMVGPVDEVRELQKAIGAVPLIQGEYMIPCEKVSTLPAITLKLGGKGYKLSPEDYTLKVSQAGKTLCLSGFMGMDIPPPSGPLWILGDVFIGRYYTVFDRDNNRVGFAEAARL
Method: In Vitro Enzymatic Cathepsin D (CatD) FRET Assay Recombinant CatD was expressed in CHO cells. The assay buffer for CatD was 0.05 M citrate pH 3.5, 10% DMSO final, 5 mM CHAPS. The CatD enzyme (9 nM) was pre-incubated for one hour with inhibitors, typically in about luL of DMSO according to a serial dilution, is added thereto. The assays was effectively started by the addition of different FRET substrates (20 nM for CatD) and the combination was incubated for one hour. The FRET assay was terminated with by addition of tris buffer, which raises the pH to neutrality, and the fluorescence was determined. The FRET substrate was a peptide with commercially available fluorophore and quencher, on opposite sides of the CatD cleavage site. The CatD substrate peptide sequence was based on sequence #1 of Table 1 from Gulnik et al., FEBS Lett. 413(2):379-384 (1997). Proteolytic cleavage of the FRET substrate released quenching of fluorescence (CatD excitation 500 nm and emission 580 nm). The in vitro CatD FRET assay data for each of the Examples is provided in Table 2, conducted by the first procedure described above. […] Thus, with this surprising selectivity profile, the compounds provided herein are believed to minimize, reduce or completely eliminate any risk of retinal atrophy and abnormal development of the eye and of the retinal pigmented epithelium as it relates to the normal function and activity of CatD.

human recombinant BACE2 = human recombinant BACE2 (Homo sapiens (Human), UniProt Q9Y5Z0); assay: In vitro enzymatic BACE2 FRET assay; type: biochemical; conditions: pH 4.5, 1 h pre-incubation, read-out: BACE2 Enzyme IC50
Chain of human recombinant BACE2 (Q9Y5Z0 63-518): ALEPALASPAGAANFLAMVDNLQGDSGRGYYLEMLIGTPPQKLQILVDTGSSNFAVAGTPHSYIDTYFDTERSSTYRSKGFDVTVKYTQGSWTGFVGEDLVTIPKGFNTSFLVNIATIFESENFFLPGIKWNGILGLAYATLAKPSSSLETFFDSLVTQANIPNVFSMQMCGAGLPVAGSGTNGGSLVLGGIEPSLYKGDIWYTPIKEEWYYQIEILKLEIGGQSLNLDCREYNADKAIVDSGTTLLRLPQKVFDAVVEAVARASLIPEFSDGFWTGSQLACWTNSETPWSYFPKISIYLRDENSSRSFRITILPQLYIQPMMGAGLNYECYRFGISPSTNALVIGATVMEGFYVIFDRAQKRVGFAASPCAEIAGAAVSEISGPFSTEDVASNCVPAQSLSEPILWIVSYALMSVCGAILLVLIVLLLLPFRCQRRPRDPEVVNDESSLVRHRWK
Method: (§1) In Vitro Enzymatic BACE1 and BACE2 FRET (Fluorescence Resonance Energy Transfer) Assays
(§2) The cDNAs for both human recombinant BACE1 and 2 with C-terminal 6-His Tags were cloned into transient protein expression vectors, which were subsequently transfected into mammalian cell lines. These recombinant proteins were further purified using Ni-NTA affinity chromatography (Qiagen). The assay buffer used in these screens was 0.05 M acetate, pH 4.5, 8% DMSO final, 100 μM genapol (which is a nonionic detergent, below its Critical Micelle Concentration). The β-secretase enzyme (0.02 nM for BACE1 and 0.64 nM for BACE2), which was pre-incubated for one hour with the test compound, typically in about luL of DMSO according to a serial dilution, was added thereto. The assay was effectively started by the addition of FRET substrate (50 nM) and the combination was incubated for one hour. The FRET assay was terminated by the addition of tris buffer, which raised the pH to neutrality, and the fluorescence was determined. The FRET substrate was a peptide with commercially available fluorophore and quencher, on opposite sides of the BACE cleavage site. The specific FRET substrate used in this assay was made by Amgen in-house. Commercially available FRET substrates, for example, the FRET substrate offered with the BACE1 FRET Assay Kit sold by ThermoFisher Scientific (Catalog Number P2985), may be used in this assay with the appropriate modifications, which are within the purview of the ability of a person with ordinary skill in the art. Proteolytic cleavage of the FRET substrate released quenching of fluorescence (excitation 488 nm and emission 590 nm).

BACE1 [2] = biological target: T1, BACE1; assay: In vitro enzymatic BACE1 FRET assay; type: biochemical; conditions: pH 4.5, 1 h pre-incubation, read-out: BACE1 Enzyme IC50
Method: as §1, §2
Target sequence in this assay (P56817 46-501): as the sequence (P56817 46-501, species assumed) above

[3] = tested on: Aβ peptide levels in the CSF and plasma; conditions: nonhuman primates; cited from earlier work
[4] = repeated doses up to 200 mg, phase I clinical trial; cited from earlier work
Aβ peptide in CSF = conditions: cited from earlier work
[5] = in vivo; cited from earlier work
[6] = tested on: pigment epithelium of the rat's eye; conditions: higher compound dose given for three months; cited from earlier work
[7] = tested on: CSF Aβ peptide concentrations; conditions: sustained and dose-dependent manner; cited from earlier work
[8] = phase I clinical trials; cited from earlier work

SMILES: CNC(=O)[C@]1(C)C[C@@](C)(c2cc(/C=C(\F)c3ccc(C#N)cn3)ccc2F)N=C(N)S1 [Example 116, (4S,6S)-2-amino-4-(5-((Z)-2-(5-cyanopyridin-2-yl)-2-fluorovinyl)-2-fluorophenyl)-N,4,6-trimethyl-5,6-dihydro-4H-1,3-thiazine-6-carboxamide]
- IC50 (BACE1 [1]): 10 nM
- IC50 (Recombinant CatD): 68600 nM
- IC50 (human recombinant BACE2): 560 nM
- IC50 (BACE1 [2]): 25 nM

SMILES: C[C@H]1OC[C@]2(c3cc(NC(=O)c4cnc(C(F)F)cn4)ccc3F)N=C(N)SC[C@H]12 [Example E2609]
- reduction in Aβ peptide levels in the CSF and plasma [3]: significant reduction
- clinical safety [4]: did not show clinical significant safety concerns

SMILES: C[C@@]1(c2cc(NC(=O)c3ccc(C#N)cn3)ccc2F)C=CSC(N)=N1 [JNJ-54861911]
- reduction of Aβ peptide concentrations (Aβ peptide in CSF; in vivo): dose-dependently reduce Aβ peptide concentrations
- Aβ peptide reduction in CSF (Aβ peptide in CSF; oral dose of 95 mg once daily): up to 95%
- ability to cross the blood-brain barrier [5]: demonstrated an ability to cross the blood-brain barrier

SMILES: C[C@@]1(c2cc(-c3cncnc3)c(F)cc2F)CCSC(N)=N1 [LY 2811376]
- eye toxicity finding [6]: damaged the pigment epithelium of the rat's eye

SMILES: CN1C(=N)N[C@](C)(c2cc(NC(=O)c3ccc(F)cn3)ccc2F)CS1(=O)=O [MK-8931]
- CSF Aβ peptide concentrations [7]: significantly reduced
- safety profile [8]: excellent safety profile with no immediately noticeable side effects
